Measured values taken from patent publication US11612641B2, “Method for treating Huntingtons's disease” (UNIVERSITY OF IOWA RESEARCH FOUNDATION, priority 2014, dated 2023).
“Also recorded” adds a separate entry of the source.

Assays:
[1] = target: T1, mTORC1 (Mus musculus, UniProt P26883+Q9JLN9); assay: mTORC1 activity (pS6) in striatum of N171-82Q mice given RAD001; type: in vivo; conditions: RAD001 for 2 weeks vs vehicle, striata harvested 24 hours after the last dose
T1 construct: Biochemical assessment of mTORC1 activity (pS6) in striatal lysates from N171-82Q mice; from tissue; host or cells: striatum of N171-82Q transgenic mice (in vivo)
From the text: (§1) All animal protocols were approved by the University of Iowa Animal Care and Use Committee. N171-82Q mice were obtained from Jackson Laboratories (Bar Harbor, Me.) and maintained on B6C3F1/J background. Mice were genotyped using primers specific for the mutant human HTT transgene, and hemizygous and age-matched wild-type littermates were used for the indicated experiments. Mice were housed in a controlled temperature environment on a 12-hour light/dark cycle. Food and water were provided ad libitum. For pharmacological studies, RAD001 was obtained from LC Laboratories, diluted to 2 mg/ml in 2% DMSO, and stored at −20° C. Freshly thawed vehicle and RAD001 (30 μmol/kg) were given 3 times per week (Monday, Wednesday, and Friday) for two weeks by gavage as described previously (Fox et al., 2010). […]
Floating, 40-μm coronal brain sections were processed for immunohistochemical staining of medium spiny neurons or mHTT aggregates using biotin-labeled antibody. […] S6 phosphorylation was detected with a phospho-S6 antibody (S235/236, 1:300, Cell Signaling). […] The areas of DARPP-32 positive MSN were quantified by Olympus DP2-BSW software (version 2.1). The average MSN areas of ipsilateral injected sides were compared to contralateral control sides and expressed as means+SEM. EM48 positive inclusions were counted by an experimenter blinded to treatment groups. […]

[2] = tested on: medium spiny neurons (MSN); assay: DARPP-32 staining: MSN cell area and striatal volume in N171-82Q mice; type: in vivo, mouse
From the text: as §1, with “C.” for “C. Freshly thawed vehicle and RAD001 (30 μmol/kg) were given 3 times per week (Monday, Wednesday, and Friday) for two weeks by gavage as described previously (Fox et al., 2010).”
Floating, 40-μm coronal brain sections were processed for immunohistochemical staining of medium spiny neurons or mHTT aggregates using biotin-labeled antibody. […] S6 phosphorylation was detected with a phospho-S6 antibody (S235/236, 1:300, Cell Signaling). […] The areas of DARPP-32 positive MSN were quantified by Olympus DP2-BSW software (version 2.1). The average MSN areas of ipsilateral injected sides were compared to contralateral control sides and expressed as means+SEM. EM48 positive inclusions were counted by an experimenter blinded to treatment groups.
Striatal volume was calculated using point counting methods with the Cavalieri estimator of volume (Michel and Cruz-Orive, 1988). […] A minimum of 200 points were counted over 5 sections. […]

[3] = tested on: Q7 and Q111 striatal cells; assay: Western blot of Q7 and Q111 striatal cells treated with Torin1; type: cell-based; conditions: 250 nM Torin1, 24 hours
Description: (§2) Mutant (Q111) and WT (Q7) striatal cells (Trettel et al., 2000) with full-length HTT were kindly provided by Dr. Marcy MacDonald. The Q7 and Q111 cells were grown at 37° C. in Dulbecco's modified Eagle's medium (DMEM; Sigma Chemical Co, St. Louis, Mo.) supplemented with 10% fetal bovine serum, 1% non-essential amino acids, 2 mM L-glutamine, and 400 μg/ml G418 (Geneticin; Invitrogen, Carlsbad, Calif.).
Mouse striata were harvested and lysed in RIPA buffer containing 50 mM Tris (pH 8.0), 150 mM NaCl, 1% […] detergent, 0.1% SDS detergent, 0.5% deoxycholic acid, and 1 mM β-mercaptoethanol with protease inhibitors (Complete Mini, Roche Applied Science, Mannheim, Germany) and phosphatase inhibitors (PhosSTOP Phosphatase Inhibitor Cocktail, Roche Applied Science, Mannheim, Germany). Tissues were homogenized on ice and spun at 14,000 g for 20 min. Supernatant were used for analysis. Protein concentration was determined by BCA assay (Pierce, Rockford, Ill.) and 20-30 μg of protein was reduced and separated by SDS-PAGE on 4%-10% acrylamide gels and transferred to 0.2 μm Immobilon PVDF membranes (Millipore, Billerica, Mass.). The primary antibodies used were as follows: DARPP-32 (1:1000, Cell Signaling), β-actin (Sigma-Aldrich, 1:5000), S6 (1:1000, Cell Signaling), phospho-S6 (S235/236, 1:1000, Cell Signaling), 4EBP1 (1:1000, Cell Signaling), phospho-4E-BP1 (T37/46, 1:1000, Cell Signaling), mTOR (1:1000, Cell Signaling), Rictor (1:1000, Cell Signaling), Raptor (1:1000, Cell Signaling), CREB (1:1000, Cell Signaling), TORC1 (1:1000, Cell Signaling), PGC1-α (1:1000, abeam), LC3 (1:1000, Novus Biologicals), and Beclin1 (1:1000, Cell Signaling). Secondary antibodies used were HRP-goat anti-mouse IgG and HRP-goat anti-rabbit IgG (Cell Signaling). Blots were developed using ECL Plus Western Blotting Detection System (GE Healthcare, Pittsburgh, Pa.), and then exposed to film. Protein quantification was performed using NIH ImageJ software or the VersaDoc™ Imaging System (Biorad) and Quantity One R analysis software. Band densities were normalized to housekeeping (β-actin) bands from the same samples and lanes.

[4] = tested on: Q7 and Q111 striatal cells; assay: RT-qPCR of HMGCR and HMGCS1 in Q7 and Q111 striatal cells treated with Torin1; type: cell-based; conditions: 250 nM Torin1, 24 hours, both mutant and normal cell lines
Description: as §2
RNA was isolated from striatal punches using 1 ml of TRIzol. Random-primed first-strand complementary DNA (cDNA) synthesis was performed using 500 ng total RNA (High Capacity cDNA Reverse Transcription Kit; Applied Biosystems, Foster City, Calif.) per manufacturer's protocol. Real-time PCR was performed on a sequence detection system (Prism 7900HT, Applied Biosystems) using SYBR green PCR mix (Invitrogen) or TaqMan 2× Universal Master Mix (Applied Biosystems). The following Taqman primer/probe sets were obtained from Applied Biosystem: Rhes (Mm04209172_m1 and Hs04188091_mH), PGC1-α (Mm01208835_m1), and HMGCS1 (Mm01304569_m1), and HDAC4 (Mm01299557_m1). The primer sequences for SYBR green RT PCR are available upon request. Relative gene expression was determined using the AACT method, normalizing to β-actin.

[5] = tested on: R6/2 HD mice; conditions: R6/2 HD mice (Fox et al., 2010); cited from earlier work

In the case of CO[C@H]1C[C@@H]2CC[C@@H](C)[C@@](O)(O2)C(=O)C(=O)N2CCCC[C@H]2C(=O)O[C@H]([C@H](C)C[C@@H]2CC[C@@H](OCCO)[C@H](OC)C2)CC(=O)[C@H](C)/C=C(\C)[C@@H](O)[C@@H](OC)C(=O)[C@H](C)C[C@H](C)/C=C/C=C/C=C/1C [RAD001], the “mTORC1 activity (S6 phosphorylation, pS6)” value [1] is reported as “attenuated; also recorded: inhibits mTORC1 activity”, the MSN atrophy ([2]; 2 weeks of RAD001 treatment in the absence of caRheb, N171-82Q mice) is reported as “mild but significant exacerbation” and the “morphological effects of caRheb (MSN cell size, striatal volume)” value ([2]; RAD001 30 μmol/kg by gavage 3 times per week for two weeks in AAV.caRheb injected N171-82Q mice) is reported as “reversed”.
With CCC(=O)N1CCN(c2ccc(-n3c(=O)ccc4cnc5ccc(-c6cnc7ccccc7c6)cc5c43)cc2C(F)(F)F)CC1 [Torin1] the CREB [3] was “repressed”, the DARPP-32 expression [3] was “reduced” and the PGC1-α [3] was “repressed”. For the same molecule, the p-4E-BP1 levels [3] was “reduced”, the pS6 levels [3] was “reduced” and the “transducer of regulated CREB 1 (TORC1)” value [3] was “repressed”. For the same molecule, the HMGCR expression [4] was “reduced expression” and the HMGCS1 expression [4] was “reduced expression”.
For CO[C@H]1C[C@@H]2CC[C@@H](C)[C@@](O)(O2)C(=O)C(=O)N2CCCC[C@H]2C(=O)O[C@H]([C@H](C)C[C@@H]2CC[C@@H](O)[C@H](OC)C2)CC(=O)[C@H](C)/C=C(\C)[C@@H](O)[C@@H](OC)C(=O)[C@H](C)C[C@H](C)/C=C/C=C/C=C/1C [rapamycin], the brain atrophy [5] is given as “enhanced brain atrophy” and the weight loss [5] is given as “accelerated weight loss”.
